# According to ChEMBL document CHEMBL1136219, “Synthesis and SAR evaluation of oxadiazolopyrazines as selective Haemophilus influenzae antibacterial agents” (2003):
# Tests used:
# Assay type in all cases: functional
# [1] = system: Streptococcus pneumoniae; test: Minimum inhibitory concentration against Streptococcus pneumoniae
# [2] = system: Staphylococcus aureus; test: Minimum inhibitory concentration against Staphylococcus aureus
# [3] = system: JIYOYE; test: Cytotoxicity against human Jijoye B cell
# [4] = system: Haemophilus influenzae; test: Minimum inhibitory concentration against Haemophilus influenzae
# [5] = system: Candida albicans; test: Minimum inhibitory concentration against Candida albicans
# [6] = system: Escherichia coli; test: Minimum inhibitory concentration against Escherichia coli
Structure (SMILES),MIC [1] [µg/mL],MIC [2] [µg/mL],MIC [4] [µg/mL],MIC [5] [µg/mL],MIC [6] [µg/mL],Cytotoxicity [3] [µg/mL]
Oc1nc2nonc2nc1-c1ccccc1Br,128,> 128,128,> 128,> 128,>100
Oc1nc2nonc2nc1-c1ccc(C(F)(F)F)cc1,64,32,4,> 128,> 128,>100
Oc1nc2nonc2nc1-c1ccc2c(c1)OCO2,128,64,2,> 128,> 128,>100
Oc1nc2nonc2nc1-c1ccccc1,128,128,1,> 128,128,>100
Oc1nc2nonc2nc1-c1cccc(Br)c1,64,32,0.5,> 128,> 128,>100
Oc1nc2nonc2nc1-c1ccc(Oc2ccccc2)cc1,64,4,8,> 128,> 128,60
O=[N+]([O-])c1ccc(-c2nc3nonc3nc2O)cc1,128,> 128,8,> 128,> 128,>100
Oc1nc2nonc2nc1-c1ccc(N2CCCCC2)cc1,128,64,64,> 128,> 128,>100
Oc1nc2nonc2nc1-c1ccc(Br)cc1,64,16,1,> 128,> 128,>100
Oc1nc2nonc2nc1-c1ccccc1F,64,> 128,8,> 128,> 128,>100
Oc1nc2nonc2nc1-c1ccccc1Cl,128,> 128,128,> 128,> 128,>100
Oc1nc2nonc2nc1-c1ccsc1,128,64,1,> 128,128,100
CN(C)c1ccc(-c2nc3nonc3nc2O)cc1,128,> 128,4,> 128,> 128,>100
Oc1nc2nonc2nc1-c1cccc(F)c1,64,64,1,> 128,128,>100

# Continued by falling MIC [1], values first:
MIC [1] [µg/mL],MIC [2] [µg/mL],MIC [4] [µg/mL],MIC [5] [µg/mL],MIC [6] [µg/mL],Structure (SMILES),Cytotoxicity [3] [µg/mL]
128,32,2,> 128,> 128,Oc1nc2nonc2nc1-c1cccc(C(F)(F)F)c1,>100
128,> 128,128,> 128,> 128,COc1cc(-c2nc3nonc3nc2O)cc(OC)c1OC,>100
128,16,1,> 128,> 128,Oc1nc2nonc2nc1-c1ccc(Cl)cc1,>100
128,64,4,> 128,> 128,COc1ccc(-c2nc3nonc3nc2O)cc1,>100
128,128,4,128,> 128,Oc1nc2nonc2nc1-c1ccc[nH]1,>100
64,32,1,> 128,> 128,O=[N+]([O-])c1cccc(-c2nc3nonc3nc2O)c1,>100
64,> 128,32,> 128,> 128,Oc1nc2nonc2nc1-c1ccc(N2CCOCC2)cc1,>100
64,4,16,> 128,> 128,Oc1nc2nonc2nc1-c1ccc(C2CCCCC2)cc1,60
64,> 128,8,> 128,> 128,Cn1cccc1-c1nc2nonc2nc1O,>100
64,64,1,> 128,> 128,Oc1nc2nonc2nc1-c1ccc(F)cc1,>100
64,32,0.5,> 128,128,Oc1nc2nonc2nc1-c1cccs1,>100
64,> 128,8,> 128,> 128,Oc1nc2nonc2nc1-c1c[nH]c2ccccc12,>100
64,128,8,> 128,> 128,COc1cccc(-c2nc3nonc3nc2O)c1,>100
64,128,1,> 128,> 128,Oc1nc2nonc2nc1-c1cccc(Cl)c1,>100
